In patent publication US8183262B2, “Pyridine derivatives as mGluR2 antagonists” (Hoffmann-La Roche Inc., priority 2007, dated 2012):

Question: With `COc1cc(-c2cc(C)nc(-c3ccnc(-c4ccc(S(N)(=O)=O)s4)c3)c2)ccc1C(F)(F)F` [Example 341, 5-[4-(3-Methoxy-4-trifluoromethyl-phenyl)-6-methyl-[2,4′]bipyridinyl-2′-yl]-thiophene-2-sulfonic acid amide] as the compound, how does the melting point read?
Answer: 261 °C (dec.)

Question: Which melting point does the source give for `Cc1cc(-c2ccc(C(F)(F)F)cc2)cc(-c2cccc(-c3csc(N)n3)c2)n1` [Example 342, 4-{3-[6-Methyl-4-(4-trifluoromethyl-phenyl)-pyridin-2-yl]-phenyl}-thiazol-2-ylamine] here?
Answer: > 250 °C

Question: For `Cc1cc(-c2ccc(C(F)(F)F)cc2)cc(-c2cccc(-c3csc(NS(=O)(=O)NC(=O)OC(C)(C)C)n3)c2)n1` [Example 344, N-(tert-Butoxycarbonyl)-N′-(4-{3-[6-methyl-4-(4-trifluoromethyl-phenyl)-pyridin-2-yl]-phenyl}-thiazol-2-yl)-sulfamide], which melting point is on record?
Answer: 152 °C (dec.)

Question: For `Cc1cc(-c2ccc(C(F)(F)F)cc2)cc(-c2ccnc(-c3cccc(S(=O)(=O)N4CCSCC4)c3)c2)n1` [Example 347, 6-Methyl-2′-[3-(thiomorpholine-4-sulfonyl)-phenyl]-4-(4-trifluoromethyl-phenyl)-[2,4′]bipyridinyl], which melting point is on record?
Answer: 156 °C (dec.)

Question: Which melting point does the source give for `Cc1cc(-c2ccc(C(F)(F)F)cc2)cc(-c2ccnc(-c3cccc(S(=O)(=O)NCCO)c3)c2)n1` [Example 348, N-(2-Hydroxy-ethyl)-3-[6-methyl-4-(4-trifluoromethyl-phenyl)-[2,4′]bipyridinyl-2′-yl]-benzenesulfonamide] here?
Answer: 103 °C (dec.)

Question: With `Cc1cc(-c2ccc(C(F)(F)F)cc2)cc(-c2ccnc(-c3cccc(S(=O)(=O)NC(C)(C)CO)c3)c2)n1` [Example 349, N-(2-Hydroxy-1,1-dimethyl-ethyl)-3-[6-methyl-4-(4-trifluoromethyl-phenyl)-[2,4′]bipyridinyl-2′-yl]-benzenesulfonamide] as the compound, how does the melting point read?
Answer: 92 °C

Question: For `Cc1cc(-c2ccc(C(F)(F)F)cc2)cc(-c2cccc(-c3cccc(NS(=O)(=O)N4CCOCC4)c3)n2)n1` [Example 351, Morpholine-4-sulfonic acid {3-[6′-methyl-4′-(4-trifluoromethyl-phenyl)-[2,2′]bipyridinyl-6-yl]-phenyl}-amide], which melting point is on record?
Answer: 191 °C

Question: For `Cc1cc(-c2ccc(C(F)(F)F)cc2)cc(-c2cccc(-c3ccnc(N)c3)n2)n1` [Example 358, 6-Methyl-4-(4-trifluoromethyl-phenyl)-[2,2′;6′,4″]terpyridin-2″-ylamine], which melting point is on record?
Answer: 160 °C

Question: With `Cc1cc(-c2ccc(C(F)(F)F)cc2)cc(-c2cccc(-c3cccc(S(=O)(=O)NCCO)c3)n2)n1` [Example 359, N-(2-Hydroxy-ethyl)-3-[6′-methyl-4′-(4-trifluoromethyl-phenyl)-[2,2′]bipyridinyl-6-yl]-benzenesulfonamide] as the compound, how does the melting point read?
Answer: 110 °C (dec.)

Question: With `Cc1cc(-c2ccc(C(F)(F)F)cc2)nc(-c2ccnc(-c3cccc(N)c3)c2)c1` [Example 361, 3-[4-Methyl-6-(4-trifluoromethyl-phenyl)-[2,4]bipyridinyl-2′-yl]-phenylamine] as the compound, how does the melting point read?
Answer: 87 °C (dec.)

Question: With `CC(C)(C)NS(=O)(=O)c1cccc(-c2cccc(-c3nc(-c4ccc(C(F)(F)F)cc4)cc(C(F)(F)F)n3)n2)c1` [Example 362, N-tert-Butyl-3-{6-[4-trifluoromethyl-6-(4-trifluoromethyl-phenyl)-pyrimidin-2-yl]-pyridin-2-yl}-benzenesulfonamide] as the compound, how does the melting point read?
Answer: 75 °C

Question: With `Cc1cc(-c2ccc(C(F)(F)F)cc2)cc(-c2cccc(-c3cccc(S(=O)(=O)NC(C)(C)CO)c3)n2)n1` [Example 363, N-(2-Hydroxy-1,1-dimethyl-ethyl)-3-[6′-methyl-4′-(4-trifluoromethyl-phenyl)-[2,2′]bipyridinyl-6-yl]-benzenesulfonamide] as the compound, how does the melting point read?
Answer: 171 °C

Question: For `NS(=O)(=O)c1cccc(-c2cccc(-c3nc(-c4ccc(C(F)(F)F)cc4)cc(C(F)(F)F)n3)n2)c1` [Example 364, 3-{6-[4-Trifluoromethyl-6-(4-trifluoromethyl-phenyl)-pyrimidin-2-yl]-pyridin-2-yl}-benzenesulfonamide], which melting point is on record?
Answer: 244 °C (dec.)
